Laboratory results taken from patent US20250197387A1, “BCL-XL DEGRADERS AND USES THEREOF” (Kymera Therapeutics, Inc., priority 2021, published 2025).

Target: T1, BCL-XL (Homo sapiens, UniProt Q07817)
T1 construct: endogenous in cells; host or cells: MOLT-4
Assay: BCL-XL degradation assay, western blot in MOLT-4 cells, 16 h
Type: cell-based
Settings: western blot, MOLT-4 cells, 16 h; for Dmax: read-out: Bcl-xL WB in MOLT-4 degradation 16 h: Average Dmax %; for DC50: read-out: Bcl-xL WB in MOLT-4 degradation 16 h: Mean external-Abs DC50
Protocol: Compounds treatment: compounds were reconstituted in DMSO to make a stock concentration of 10 mM. MOLT-4 cells were maintained in RPMI-1640+10% FBS+1% Penicillin-Streptomycin. Cells were seeded into 6-well plates in 2 mL at the seeding density of 2e6 cells/mL. Compounds were added to the cells to a final concentration ranging 0.02-10 μM. After 16 hr incubation at 37° C., in a CO2 incubator, cells were collected in an Eppendorf tube and centrifuged at 200×g for 5 minutes, the supernatant removed and pellets washed with ice-cold PBS, centrifuged and supernatant removed again. Then. 50 μl of pre-chilled RIPA lysis buffer (Boston BioProducts. BP-115D) with protease and phosphatase inhibitors (Roche Applied Science. #04906837001 and #04693116001) was added into cell pellet to lyze the cells for 20 minutes under 4° C. Cell lysates were spin at 13000 rpm for 10 minutes. Supernatants were collected and protein concentration was measured by BCA assay kit (Solarbio. PC0020-500) following the manufacturer's protocol. Samples' final protein concentration was adjusted to 3.75 μg/uL with the RIPA lysis buffer based on BCA assay results and 4× loading buffer (Invitrogen. NP0007) was added into the samples and samples were heated to 85° C., for 10 min and then let cool at RT. Samples were centrifuged at 13000 rpm for 10 min and then loaded into a 26-well NuPAGER. Novex 4-12% Bis-Tris Midi Gel (Invitrogen. WG1403BOX) and run in NuPAGER MOPS SDS Running Buffer (Invitrogen. NP0001) for 180 minutes at 70 V into a XCell4 SureLock™ Midi-Cell Runner (Invitrogen. WR0100). Gel were transferred using the Invitrogen iBlot gel transfer device (Invitrogen. IB21001) and the nitrocellulose transfer stacks (Invitrogen, IB23001) with Program PO for 9 minutes. The membrane was then blocked with 5% bovin serum albumin for 1 hr at RT, then incubated with primary antibodies diluted in blocking buffer (LI-COR. 927-60001) and shake at 4° C., overnight. The primary antibodies were anti-BCL-xL antibody (CST. 2762:1:1000), anti-beta-actin (CST. 3700; 1:5000) and anti-GAPDH (CST. 97166:1:5000). Membranes were then washed three times with PBST for 15 minutes at RT. Secondary antibodies IR-Dye 680 CW Goat anti Mouse IgG (LI-COR. 926-68070) and IR-Dye 800 CW Goat anti Rabbit IgG (LI-COR. 926-32211) were diluted at a ratio of 1:10000 into PBST and membranes incubated for 1 hour at RT. Membranes were then washed three times with PBST for 15 minutes at RT. The western blot images were obtained using Odyssey Imaging System and quantified using Image Studio Lite Ver 5.2 software.
The letter codes for BCL-XL DC50 include: A (<0.01 μM); B (0.01-0.1 μM); C (>[…]); D (>0.5-1.0 μM); and E (>1.0 μM). The letter codes for Dmax % include A (>75%); B (50 to 75%); C (<50%).

T1 sequence (Q07817 whole entry): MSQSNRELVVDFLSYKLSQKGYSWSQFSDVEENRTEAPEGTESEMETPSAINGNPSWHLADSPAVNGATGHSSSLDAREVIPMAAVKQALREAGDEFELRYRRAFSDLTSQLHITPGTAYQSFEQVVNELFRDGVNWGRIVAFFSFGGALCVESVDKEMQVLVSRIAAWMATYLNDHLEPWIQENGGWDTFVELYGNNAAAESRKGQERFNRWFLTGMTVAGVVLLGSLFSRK

| Structure (SMILES) | Dmax | DC50 |
| --- | --- | --- |
| Cc1ncsc1-c1ccc(CNC(=O)[C@@H]2C[C@@H](O)CN2C(=O)[C@@H](NC(=O)C2(F)CC2)C(C)(C)C)c(OCCCCCC(=O)N(C)CCCc2cccc(F)c2OCCCc2sc(N3CCc4cccc(C(=O)Nc5nc6ccccc6s5)c4C3)nc2C(=O)O)c1 [I-13] | > 75% | 100 to 500 nM |
| Cc1ncsc1-c1ccc(CNC(=O)[C@@H]2C[C@@H](O)CN2C(=O)[C@@H](NC(=O)C2(F)CC2)C(C)(C)C)c(OCCCCCCCC(=O)N(C)CCCc2cccc(F)c2OCCCc2sc(N3CCc4cccc(C(=O)Nc5nc6ccccc6s5)c4C3)nc2C(=O)O)c1 [I-14] | > 75% | 100 to 500 nM |
| Cc1ncsc1-c1ccc(CNC(=O)[C@@H]2C[C@@H](O)CN2C(=O)[C@@H](NC(=O)C2(F)CC2)C(C)(C)C)c(OCCCC(=O)N(C)CC#Cc2cccc(F)c2OCCCc2sc(N3CCc4cccc(C(=O)Nc5nc6ccccc6s5)c4C3)nc2C(=O)O)c1 [I-18] | 50 to 75% | > 1000 nM |
| Cc1ncsc1-c1ccc(CNC(=O)[C@@H]2C[C@@H](O)CN2C(=O)[C@@H](NC(=O)C2(F)CC2)C(C)(C)C)c(OCCCCCC(=O)N(C)CC#Cc2cccc(F)c2OCCCc2sc(N3CCc4cccc(C(=O)Nc5nc6ccccc6s5)c4C3)nc2C(=O)O)c1 [I-19] | < 50% | > 1000 nM |
| Cc1ncsc1-c1ccc(CNC(=O)[C@@H]2C[C@@H](O)CN2C(=O)[C@@H](NC(=O)C2(F)CC2)C(C)(C)C)c(OCCCCCCCC(=O)N(C)CC#Cc2cccc(F)c2OCCCc2sc(N3CCc4cccc(C(=O)Nc5nc6ccccc6s5)c4C3)nc2C(=O)O)c1 [I-20] | > 75% | 100 to 500 nM |
| Cc1ncsc1-c1ccc([C@H](C)NC(=O)[C@@H]2C[C@@H](O)CN2C(=O)[C@@H](NC(=O)CCCCCS(=O)(=O)NC(=O)c2nc(N3CCc4cccc(C(=O)Nc5nc6ccccc6s5)c4C3)sc2CCCOc2ccc(C#CCN(C)C)cc2F)C(C)(C)C)cc1 [I-26] | > 75% | < 10 nM |
| Cc1ncsc1-c1ccc([C@H](C)NC(=O)[C@@H]2C[C@@H](O)CN2C(=O)[C@@H](NC(=O)CCc2cccc(F)c2OCCCc2sc(N3CCc4cccc(C(=O)Nc5nc6ccccc6s5)c4C3)nc2C(=O)O)C(C)(C)C)cc1 [I-30] | < 50% | > 1000 nM |
| Cc1ncsc1-c1ccc([C@H](C)NC(=O)[C@@H]2C[C@@H](O)CN2C(=O)[C@@H](NC(=O)CCCN(C)C(=O)CCCCCc2ccc(N3CCc4cccc(C(=O)Nc5nc6ccccc6s5)c4C3)nc2C(=O)O)C(C)(C)C)cc1 [I-36, 6-(8-(benzo[d]thiazol-2-ylcarbamoyl)-3,4-dihydroisoquinolin-2 (1H)-yl)-3-(6-((4-(((S)-1-((2S,4R)-4-hydroxy-2-(((S)-1-(4-(4-methylthiazol-5-yl)phenyl)ethyl)carbamoyl)pyrrolidin-1-yl)-3,3-dimethyl-1-oxobutan-2-yl)amino)-4-oxobutyl)(methyl)amino)-6-oxohexyl)picolinic acid] | < 50% | > 1000 nM |
| Cc1ncsc1-c1ccc(CNC(=O)[C@@H]2C[C@@H](O)CN2C(=O)C(c2cc(OCCCC(=O)N3CCN(CC[C@H](CSc4ccccc4)Nc4ccc(S(=O)(=O)NC(=O)c5ccc(N6CCN(CC7=C(c8ccc(Cl)cc8)CCC(C)(C)C7)CC6)cc5)cc4S(=O)(=O)C(F)(F)F)CC3)no2)C(C)C)cc1 (stereo partly shown) [I-38] | 50 to 75% | 100 to 500 nM |
| Cc1ncsc1-c1ccc([C@H](C)NC(=O)[C@@H]2C[C@@H](O)CN2C(=O)[C@@H](NC(=O)CCc2ccc(N3CCc4cccc(C(=O)Nc5nc6ccccc6s5)c4C3)nc2C(=O)O)C(C)(C)C)cc1 [I-40] | < 50% | > 1000 nM |
| Cc1ncsc1-c1ccc([C@H](C)NC(=O)[C@@H]2C[C@@H](O)CN2C(=O)[C@@H](NC(=O)CCCC(=O)N2CCN(CC[C@H](CSc3ccccc3)Nc3ccc(S(=O)(=O)NC(=O)c4ccc(N5CCN(CC6=C(c7ccc(Cl)cc7)CCC(C)(C)C6)CC5)cc4)cc3S(=O)(=O)C(F)(F)F)CC2)C(C)(C)C)cc1 [I-86] | 50 to 75% | > 1000 nM |
| Cc1ncsc1-c1ccc(CNC(=O)[C@@H]2C[C@@H](O)CN2C(=O)C(c2cc(OCCCCCC(=O)N(C)CC#Cc3ccc(OCCCc4sc(N5CCc6cccc(C(=O)Nc7nc8ccccc8s7)c6C5)nc4C(=O)O)c(F)c3)no2)C(C)C)cc1 (stereo partly shown) [I-87] | > 75% | 10 to 100 nM |
| Cc1ncsc1-c1ccc(CNC(=O)[C@@H]2C[C@@H](O)CN2C(=O)C(c2cc(OCCCCCCCCC(=O)N(C)CC#Cc3ccc(OCCCc4sc(N5CCc6cccc(C(=O)Nc7nc8ccccc8s7)c6C5)nc4C(=O)O)c(F)c3)no2)C(C)C)cc1 (stereo partly shown) [I-88] | > 75% | 10 to 100 nM |
| Cc1ncsc1-c1ccc(CNC(=O)[C@@H]2C[C@@H](O)CN2C(=O)[C@@H](NC(=O)C2(F)CC2)C(C)(C)C)c(O[C@H]2CC[C@H](C(=O)N3CCN(CC[C@H](CSc4ccccc4)Nc4ccc(S(=O)(=O)NC(=O)c5ccc(N6CCN(CC7=C(c8ccc(Cl)cc8)CCC(C)(C)C7)CC6)cc5)cc4S(=O)(=O)C(F)(F)F)CC3)CC2)c1 [I-89] | < 50% | > 1000 nM |
| Cc1ncsc1-c1ccc(CNC(=O)[C@@H]2C[C@@H](O)CN2C(=O)[C@@H](NC(=O)C2(F)CC2)C(C)(C)C)c(O[C@H]2CC[C@@H](C(=O)N3CCN(CC[C@H](CSc4ccccc4)Nc4ccc(S(=O)(=O)NC(=O)c5ccc(N6CCN(CC7=C(c8ccc(Cl)cc8)CCC(C)(C)C7)CC6)cc5)cc4S(=O)(=O)C(F)(F)F)CC3)CC2)c1 [I-90] | < 50% | > 1000 nM |

More lines, now with the values ahead:

| Dmax | DC50 | Structure (SMILES) |
| --- | --- | --- |
| < 50% | > 1000 nM | Cc1ncsc1-c1ccc(CNC(=O)[C@@H]2C[C@@H](O)CN2C(=O)[C@@H](NC(=O)C2(F)CC2)C(C)(C)C)c(O[C@H]2C[C@H](C(=O)N3CCN(CC[C@H](CSc4ccccc4)Nc4ccc(S(=O)(=O)NC(=O)c5ccc(N6CCN(CC7=C(c8ccc(Cl)cc8)CCC(C)(C)C7)CC6)cc5)cc4S(=O)(=O)C(F)(F)F)CC3)C2)c1 [I-91] |
| > 75% | 100 to 500 nM | C#Cc1ccc(CNC(=O)[C@@H]2C[C@@H](O)CN2C(=O)[C@@H](NC(=O)C2(F)CC2)C(C)(C)C)c(OCC(=O)N2CCN(CC[C@H](CSc3ccccc3)Nc3ccc(S(=O)(=O)NC(=O)c4ccc(N5CCN(CC6=C(c7ccc(Cl)cc7)CCC(C)(C)C6)CC5)cc4)cc3S(=O)(=O)C(F)(F)F)CC2)c1 [I-92] |
| 50 to 75% | > 1000 nM | Cc1ncsc1-c1ccc([C@H](C)NC(=O)[C@@H]2C[C@@H](O)CN2C(=O)[C@@H](NC(=O)CCCCCC(=O)N2CCN(CC#Cc3ccc(OCCCc4sc(N5CCc6cccc(C(=O)Nc7nc8ccccc8s7)c6C5)nc4C(=O)O)cc3)CC2)C(C)(C)C)cc1 [I-93] |
| < 50% | > 1000 nM | CC1(C)CCC(c2ccc(Cl)cc2)=C(CN2CCN(c3ccc(C(=O)NS(=O)(=O)c4ccc(N[C@H](CCN5CCN(C(=O)COc6ccccc6CNC(=O)[C@@H]6C[C@@H](O)CN6C(=O)[C@@H](NC(=O)C6(F)CC6)C(C)(C)C)CC5)CSc5ccccc5)c(S(=O)(=O)C(F)(F)F)c4)cc3)CC2)C1 [I-97] |
| < 50% | > 1000 nM | CC1(C)CCC(c2ccc(Cl)cc2)=C(CN2CCN(c3ccc(C(=O)NS(=O)(=O)c4ccc(N[C@H](CCN5CCN(C(=O)COc6cc(F)ccc6CNC(=O)[C@@H]6C[C@@H](O)CN6C(=O)[C@@H](NC(=O)C6(F)CC6)C(C)(C)C)CC5)CSc5ccccc5)c(S(=O)(=O)C(F)(F)F)c4)cc3)CC2)C1 [I-98] |
| 50 to 75% | > 1000 nM | Cc1cc(N(CCN(C)C(=O)CCCC(=O)N[C@H](C(=O)N2C[C@H](O)C[C@H]2C(=O)N[C@@H](C)c2ccc(-c3scnc3C)cc2)C(C)(C)C)c2ccc(-c3cnn(CC4CCCCC4)c3C)c(C(=O)O)n2)nnc1Nc1nc2ccccc2s1 [I-99] |
| 50 to 75% | 100 to 500 nM | Cc1cc(N(CCN(C)C(=O)CCCCCC(=O)N[C@H](C(=O)N2C[C@H](O)C[C@H]2C(=O)N[C@@H](C)c2ccc(-c3scnc3C)cc2)C(C)(C)C)c2ccc(-c3cnn(CC4CCCCC4)c3C)c(C(=O)O)n2)nnc1Nc1nc2ccccc2s1 [I-100] |
| < 50% | > 1000 nM | Cc1cc(N(CCN(C)C(=O)CCCCCCCCC(=O)N[C@H](C(=O)N2C[C@H](O)C[C@H]2C(=O)N[C@@H](C)c2ccc(-c3scnc3C)cc2)C(C)(C)C)c2ccc(-c3cnn(CC4CCCCC4)c3C)c(C(=O)O)n2)nnc1Nc1nc2ccccc2s1 [I-101] |
